Test results as given in ChEMBL document CHEMBL5465560, “Selectivity Literature for EUbOPEN Chemogenomic Library” (2024).

What was measured:
[1] = target: Mitogen-activated protein kinase 10 (Homo sapiens, UniProt P53779); experiment: Selectivity interaction (Kinase panel (enzymatic assay)) EUB0000595a MAPK10
Insulin receptor = Insulin receptor (Homo sapiens, UniProt P06213); experiment: Selectivity interaction (KinomeScan (DiscoverX)) EUB0000045b INSR
[2] = system: Hepatocyte growth factor receptor (Homo sapiens), P08581 [Y1235D]; experiment: (§1) Selectivity interaction (KinomeScan (DiscoverX)) EUB0000695a MET; details: at 100 nM
[3] = system: Hepatocyte growth factor receptor (Homo sapiens), P08581 [M1250T]; experiment: as §1; details: at 100 nM
Sequence of Hepatocyte growth factor receptor (Homo sapiens), P08581 [M1250T] (P08581 whole entry M1250T): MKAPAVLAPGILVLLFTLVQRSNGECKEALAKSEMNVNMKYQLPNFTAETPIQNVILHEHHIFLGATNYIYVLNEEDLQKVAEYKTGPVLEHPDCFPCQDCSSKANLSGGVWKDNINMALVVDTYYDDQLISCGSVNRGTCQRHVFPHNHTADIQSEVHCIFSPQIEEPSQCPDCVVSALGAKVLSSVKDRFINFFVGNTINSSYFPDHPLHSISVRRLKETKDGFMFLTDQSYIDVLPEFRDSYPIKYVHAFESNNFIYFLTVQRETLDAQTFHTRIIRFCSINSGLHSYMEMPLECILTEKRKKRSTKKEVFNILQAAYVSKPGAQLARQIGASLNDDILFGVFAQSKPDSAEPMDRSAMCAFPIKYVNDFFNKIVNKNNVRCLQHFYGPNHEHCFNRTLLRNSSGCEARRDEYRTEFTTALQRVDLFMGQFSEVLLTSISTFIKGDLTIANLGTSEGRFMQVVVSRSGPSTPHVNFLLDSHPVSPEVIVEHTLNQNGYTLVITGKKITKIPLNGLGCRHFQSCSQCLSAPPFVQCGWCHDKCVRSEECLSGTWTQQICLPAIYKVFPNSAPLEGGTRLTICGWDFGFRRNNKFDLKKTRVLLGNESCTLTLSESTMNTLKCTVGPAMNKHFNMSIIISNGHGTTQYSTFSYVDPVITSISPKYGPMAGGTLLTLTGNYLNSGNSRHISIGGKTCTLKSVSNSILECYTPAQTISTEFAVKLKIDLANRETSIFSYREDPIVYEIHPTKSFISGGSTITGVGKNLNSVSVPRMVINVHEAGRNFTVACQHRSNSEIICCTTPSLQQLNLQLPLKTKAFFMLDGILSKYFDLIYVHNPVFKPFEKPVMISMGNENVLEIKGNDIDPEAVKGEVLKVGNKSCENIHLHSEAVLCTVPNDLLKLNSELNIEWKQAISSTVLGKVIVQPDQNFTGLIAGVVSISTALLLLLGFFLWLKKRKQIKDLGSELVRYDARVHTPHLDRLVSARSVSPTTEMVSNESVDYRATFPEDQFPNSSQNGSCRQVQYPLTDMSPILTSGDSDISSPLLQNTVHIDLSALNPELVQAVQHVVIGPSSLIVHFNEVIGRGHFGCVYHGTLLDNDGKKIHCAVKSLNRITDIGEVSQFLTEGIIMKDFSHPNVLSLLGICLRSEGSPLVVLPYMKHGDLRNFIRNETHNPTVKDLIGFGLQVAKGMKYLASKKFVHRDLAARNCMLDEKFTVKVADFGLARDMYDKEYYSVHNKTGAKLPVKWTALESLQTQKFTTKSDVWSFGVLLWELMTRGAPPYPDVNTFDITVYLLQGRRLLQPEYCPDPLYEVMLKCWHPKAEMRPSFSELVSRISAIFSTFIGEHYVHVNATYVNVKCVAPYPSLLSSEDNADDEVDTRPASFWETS

[4] = target: Hepatocyte growth factor receptor (Homo sapiens, UniProt P08581); experiment: as §1; details: at 100 nM
Sequence of Hepatocyte growth factor receptor (P08581 whole entry): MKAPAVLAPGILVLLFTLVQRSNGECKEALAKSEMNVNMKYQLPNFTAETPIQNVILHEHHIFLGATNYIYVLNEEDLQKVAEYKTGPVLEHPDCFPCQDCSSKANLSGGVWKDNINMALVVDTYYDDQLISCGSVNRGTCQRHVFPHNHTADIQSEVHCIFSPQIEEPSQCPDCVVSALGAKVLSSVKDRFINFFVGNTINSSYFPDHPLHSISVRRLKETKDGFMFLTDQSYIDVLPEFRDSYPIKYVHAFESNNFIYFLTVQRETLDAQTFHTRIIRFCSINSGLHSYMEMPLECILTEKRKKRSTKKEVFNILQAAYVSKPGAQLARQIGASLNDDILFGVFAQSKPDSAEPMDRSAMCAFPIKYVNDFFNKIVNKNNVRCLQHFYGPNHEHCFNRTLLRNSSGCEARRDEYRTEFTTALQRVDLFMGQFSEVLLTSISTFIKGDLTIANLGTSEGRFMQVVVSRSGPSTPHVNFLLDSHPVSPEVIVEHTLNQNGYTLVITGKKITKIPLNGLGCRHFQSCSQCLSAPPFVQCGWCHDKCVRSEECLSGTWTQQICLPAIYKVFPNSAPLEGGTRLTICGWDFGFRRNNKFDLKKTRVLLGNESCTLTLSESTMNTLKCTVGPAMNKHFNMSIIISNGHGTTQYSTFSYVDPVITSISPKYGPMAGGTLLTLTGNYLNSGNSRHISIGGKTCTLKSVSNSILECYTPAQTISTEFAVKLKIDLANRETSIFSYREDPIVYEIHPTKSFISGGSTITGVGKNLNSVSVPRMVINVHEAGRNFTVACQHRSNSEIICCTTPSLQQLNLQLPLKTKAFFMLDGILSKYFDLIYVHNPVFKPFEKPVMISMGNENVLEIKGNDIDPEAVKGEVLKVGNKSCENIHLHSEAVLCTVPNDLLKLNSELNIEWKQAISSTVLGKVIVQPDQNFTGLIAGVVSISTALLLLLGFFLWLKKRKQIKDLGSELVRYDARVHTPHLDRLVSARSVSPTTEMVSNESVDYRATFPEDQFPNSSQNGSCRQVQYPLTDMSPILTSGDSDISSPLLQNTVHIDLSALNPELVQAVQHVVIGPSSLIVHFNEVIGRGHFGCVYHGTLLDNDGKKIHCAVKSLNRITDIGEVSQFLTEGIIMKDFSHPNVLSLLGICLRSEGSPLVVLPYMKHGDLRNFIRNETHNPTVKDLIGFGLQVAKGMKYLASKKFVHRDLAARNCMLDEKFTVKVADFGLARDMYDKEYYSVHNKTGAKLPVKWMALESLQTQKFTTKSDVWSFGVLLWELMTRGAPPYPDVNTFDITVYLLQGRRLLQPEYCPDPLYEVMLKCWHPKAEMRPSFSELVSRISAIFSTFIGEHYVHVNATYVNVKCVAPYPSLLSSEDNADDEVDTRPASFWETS

[5] = target: Serine/threonine-protein kinase MRCK gamma (Homo sapiens) (UniProt Q6DT37); experiment: Selectivity interaction (KinomeScan (DiscoverX)) EUB0000666a CDC42BPG; details: at 10 µM
[6] = target: T1, Mitogen-activated protein kinase kinase kinase 7 (Homo sapiens) (UniProt O43318); details: at 10 µM
T1 sequence (whole entry): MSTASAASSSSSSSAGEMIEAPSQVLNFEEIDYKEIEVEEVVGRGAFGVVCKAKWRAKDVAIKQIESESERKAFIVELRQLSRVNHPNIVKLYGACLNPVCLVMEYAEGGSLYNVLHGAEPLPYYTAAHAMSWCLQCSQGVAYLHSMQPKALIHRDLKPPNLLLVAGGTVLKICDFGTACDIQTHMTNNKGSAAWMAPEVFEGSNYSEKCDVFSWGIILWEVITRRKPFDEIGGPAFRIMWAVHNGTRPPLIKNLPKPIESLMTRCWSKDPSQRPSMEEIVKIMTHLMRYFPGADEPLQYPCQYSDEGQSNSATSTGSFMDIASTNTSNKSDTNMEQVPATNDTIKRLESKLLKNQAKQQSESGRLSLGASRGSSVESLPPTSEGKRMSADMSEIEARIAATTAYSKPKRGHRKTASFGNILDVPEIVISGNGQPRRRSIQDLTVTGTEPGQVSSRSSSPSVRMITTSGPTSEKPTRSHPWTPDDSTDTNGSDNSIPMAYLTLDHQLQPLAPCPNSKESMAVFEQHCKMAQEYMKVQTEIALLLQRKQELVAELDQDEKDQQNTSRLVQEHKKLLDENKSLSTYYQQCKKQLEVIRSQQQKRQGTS

[7] = target: Cyclin-dependent kinase 8 (Homo sapiens, UniProt P49336); details: at 10 µM
Sequence of Cyclin-dependent kinase 8 (P49336 whole entry): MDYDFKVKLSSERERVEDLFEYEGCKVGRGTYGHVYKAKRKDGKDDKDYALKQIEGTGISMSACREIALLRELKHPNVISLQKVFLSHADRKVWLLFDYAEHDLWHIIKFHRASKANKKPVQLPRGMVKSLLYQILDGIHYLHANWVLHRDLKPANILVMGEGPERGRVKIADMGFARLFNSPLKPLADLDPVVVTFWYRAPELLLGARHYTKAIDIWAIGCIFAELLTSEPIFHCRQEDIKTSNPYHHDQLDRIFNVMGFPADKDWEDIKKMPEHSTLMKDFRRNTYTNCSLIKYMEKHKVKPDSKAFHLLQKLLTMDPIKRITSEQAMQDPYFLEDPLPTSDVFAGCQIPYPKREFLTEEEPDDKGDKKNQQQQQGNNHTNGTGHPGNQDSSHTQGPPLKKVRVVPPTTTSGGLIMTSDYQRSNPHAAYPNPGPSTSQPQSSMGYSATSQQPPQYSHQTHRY

Histamine H1 receptor = Histamine H1 receptor (Homo sapiens, UniProt P35367); experiment: Selectivity interaction (Panel of non-epigenetic targets (kinases, GPCRs, ion channels, and transporters, Eurofins) ) EUB0000271b HRH1; details: at 1 µM
Sequence of Histamine H1 receptor (P35367 whole entry): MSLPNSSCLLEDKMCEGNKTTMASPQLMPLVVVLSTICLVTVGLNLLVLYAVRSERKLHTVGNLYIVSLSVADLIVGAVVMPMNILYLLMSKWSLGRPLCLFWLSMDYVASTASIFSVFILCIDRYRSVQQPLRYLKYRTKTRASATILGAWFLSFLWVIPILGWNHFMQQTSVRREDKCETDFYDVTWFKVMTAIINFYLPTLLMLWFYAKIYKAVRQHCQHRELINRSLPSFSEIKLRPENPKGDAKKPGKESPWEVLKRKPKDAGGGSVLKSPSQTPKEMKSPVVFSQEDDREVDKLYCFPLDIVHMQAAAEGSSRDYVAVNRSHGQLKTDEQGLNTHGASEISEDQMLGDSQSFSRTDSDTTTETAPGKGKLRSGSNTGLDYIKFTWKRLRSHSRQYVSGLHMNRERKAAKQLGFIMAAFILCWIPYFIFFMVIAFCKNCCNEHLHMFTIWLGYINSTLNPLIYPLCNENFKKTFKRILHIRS

[8] = target: Ribosomal protein S6 kinase alpha-2 (Homo sapiens) (UniProt Q15349); experiment: Selectivity interaction (Millipore kinase profiler) EUB0000124b RPS6KA2; details: at 10 µM
[9] = target: T2, Tyrosine-protein kinase ZAP-70 (Homo sapiens) (UniProt P43403); experiment: Selectivity interaction (ActivX KiNativ screen (ex vivo kinase selectivity in human PBMCs)) EUB0001619a ZAP70; type: cell-based; details: PBMC, at 1 µM
T2 sequence (whole entry): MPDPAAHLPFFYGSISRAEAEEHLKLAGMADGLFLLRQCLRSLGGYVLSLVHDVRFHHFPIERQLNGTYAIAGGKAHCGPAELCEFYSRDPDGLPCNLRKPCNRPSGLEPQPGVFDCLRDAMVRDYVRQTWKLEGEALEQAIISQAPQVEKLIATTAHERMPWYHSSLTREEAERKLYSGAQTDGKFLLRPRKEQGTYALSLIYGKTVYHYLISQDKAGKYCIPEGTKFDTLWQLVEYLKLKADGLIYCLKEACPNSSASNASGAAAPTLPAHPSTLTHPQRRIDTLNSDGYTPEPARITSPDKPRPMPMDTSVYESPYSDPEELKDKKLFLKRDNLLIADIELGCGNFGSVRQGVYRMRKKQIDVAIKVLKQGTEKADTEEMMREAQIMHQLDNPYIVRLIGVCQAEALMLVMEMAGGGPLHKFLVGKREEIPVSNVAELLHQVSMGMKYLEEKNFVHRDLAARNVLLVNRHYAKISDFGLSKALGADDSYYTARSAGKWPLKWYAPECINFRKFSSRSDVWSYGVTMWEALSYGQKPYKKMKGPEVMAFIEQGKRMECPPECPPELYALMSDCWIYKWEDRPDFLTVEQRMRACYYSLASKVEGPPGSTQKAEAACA

[10] = target: T3, Phosphatidylinositol 5-phosphate 4-kinase type-2 gamma (Homo sapiens) (UniProt Q8TBX8); experiment: Selectivity interaction (ActivX KiNativ screen (ex vivo kinase selectivity in human PBMCs)) EUB0001619a PIP4K2C; type: cell-based; details: PBMC, at 1 µM
T3 sequence (whole entry): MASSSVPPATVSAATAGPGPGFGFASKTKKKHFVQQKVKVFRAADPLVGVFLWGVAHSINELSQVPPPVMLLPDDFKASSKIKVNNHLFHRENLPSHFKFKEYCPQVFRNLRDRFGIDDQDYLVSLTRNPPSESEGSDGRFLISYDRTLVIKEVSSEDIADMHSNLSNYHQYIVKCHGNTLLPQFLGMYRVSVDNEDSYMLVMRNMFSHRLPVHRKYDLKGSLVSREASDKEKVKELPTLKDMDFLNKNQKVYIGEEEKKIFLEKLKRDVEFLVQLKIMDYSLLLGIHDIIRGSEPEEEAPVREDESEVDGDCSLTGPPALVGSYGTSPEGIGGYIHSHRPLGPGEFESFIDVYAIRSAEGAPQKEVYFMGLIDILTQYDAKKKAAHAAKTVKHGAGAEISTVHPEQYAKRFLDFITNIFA

Sequence of Insulin receptor (P06213 28-758 limits assumed): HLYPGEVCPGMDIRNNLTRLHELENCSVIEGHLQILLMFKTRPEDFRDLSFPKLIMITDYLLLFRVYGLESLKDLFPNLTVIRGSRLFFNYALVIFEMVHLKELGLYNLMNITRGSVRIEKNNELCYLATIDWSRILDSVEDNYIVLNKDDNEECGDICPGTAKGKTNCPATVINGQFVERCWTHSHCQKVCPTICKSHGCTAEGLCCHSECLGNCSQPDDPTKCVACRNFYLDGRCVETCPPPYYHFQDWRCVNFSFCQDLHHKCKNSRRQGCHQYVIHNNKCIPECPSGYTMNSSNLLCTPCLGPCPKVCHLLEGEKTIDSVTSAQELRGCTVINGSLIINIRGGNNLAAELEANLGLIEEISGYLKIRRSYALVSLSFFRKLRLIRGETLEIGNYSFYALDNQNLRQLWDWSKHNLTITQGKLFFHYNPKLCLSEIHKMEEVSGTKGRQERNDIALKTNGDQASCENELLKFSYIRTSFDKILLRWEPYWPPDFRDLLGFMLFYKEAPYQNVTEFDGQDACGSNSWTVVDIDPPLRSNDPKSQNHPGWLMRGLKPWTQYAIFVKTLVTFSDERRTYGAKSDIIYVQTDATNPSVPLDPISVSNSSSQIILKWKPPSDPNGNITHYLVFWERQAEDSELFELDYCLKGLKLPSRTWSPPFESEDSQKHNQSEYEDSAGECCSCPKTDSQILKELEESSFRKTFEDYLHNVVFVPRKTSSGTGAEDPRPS
Sequence of Insulin receptor (P06213 763-1382 limits assumed): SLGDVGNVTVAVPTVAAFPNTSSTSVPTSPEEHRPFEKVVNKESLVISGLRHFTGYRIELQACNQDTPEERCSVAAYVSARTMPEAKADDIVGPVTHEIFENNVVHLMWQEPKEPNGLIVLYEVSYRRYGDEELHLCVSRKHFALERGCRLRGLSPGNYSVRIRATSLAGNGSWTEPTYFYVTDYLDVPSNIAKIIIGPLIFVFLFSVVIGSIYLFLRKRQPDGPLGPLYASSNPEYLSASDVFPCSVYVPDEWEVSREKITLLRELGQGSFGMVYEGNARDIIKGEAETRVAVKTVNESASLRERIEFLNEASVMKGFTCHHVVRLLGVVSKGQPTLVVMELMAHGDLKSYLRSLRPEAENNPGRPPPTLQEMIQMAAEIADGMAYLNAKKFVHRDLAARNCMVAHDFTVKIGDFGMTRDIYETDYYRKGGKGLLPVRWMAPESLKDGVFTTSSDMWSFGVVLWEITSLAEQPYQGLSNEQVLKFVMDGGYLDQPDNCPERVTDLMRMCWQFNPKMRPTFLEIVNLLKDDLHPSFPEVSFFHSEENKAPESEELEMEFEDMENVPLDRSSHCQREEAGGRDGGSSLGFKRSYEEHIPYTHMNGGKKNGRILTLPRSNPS

COCC(=O)NC/C=C/c1ccc2ncnc(Nc3ccc(Oc4ccc(C)nc4)c(C)c3)c2c1 [CP-724714]
IC50 [1]: > 10 µM

C=CC(=O)Nc1cc(-n2c(=O)ccc3cnc4ccc(-c5ccc(NS(C)(=O)=O)cc5)cc4c32)ccc1C
% of control (Insulin receptor; at 1 µM): 93%
% of control (Insulin receptor; at 10 µM): 100%

Cc1cc(F)c(C(=O)Nc2cccc(-c3nncn3C(C)C)n2)cc1-n1cnc(C2CC2)c1
% of control [2]: 100%
% of control [3]: 100%
% of control [4]: 97%

O=C(NOC[C@H](O)CO)c1ccc(F)c(F)c1Nc1ccc(I)cc1F
% of control [5]: 85%

Cc1cc([C@@H](C)Nc2ccccc2C(=O)O)c2nc(N3CCOCC3)cc(=O)n2c1 [AZD-6482]
% of control [6]: 89%
% of control [7]: 79%

Cc1cc(C)cc([C@@H]2c3cc(C)ccc3NC(=O)CN2C(=O)c2ccc(Br)s2)c1
% of inhibition (Histamine H1 receptor): 0%

CC(=O)Nc1cccc(-n2c(=O)n(C3CC3)c(=O)c3c(Nc4ccc(I)cc4F)n(C)c(=O)c(C)c32)c1
% of control [8]: 102%

N#Cc1cccc(-c2c[nH]c3ncnc(N4CCOCC4)c23)c1
% of inhibition [9]: -33%
% of inhibition [10]: 58%
